This data set in a line: method code SF-HPLC, from DOI: 10.1016/b978-0-08-029222-9.50040-8.
`CN(SN(C)C(=O)c1ccccc1Cl)C(=O)Oc1cccc2c1OC(C)(C)C2` showed a logP of 4.1.

With `CCCCCCOC(=O)N(C)SN(C)C(=O)ON=C(C)SC`, the logP is 4.2. For `CS/C(C)=N\OC(=O)N(C)SN(C)C(C)=O` the value was 1.3; for `CCCCN(SN(C)C(=O)ON=C(C)SC)C(=O)c1ccccc1`, 3.4.

`CSC(C)=NOC(=O)N(C)SN(C)C(=O)c1ccc(Cl)cc1Cl` gave a logP of 3.2.

In the case of `CCCC(=O)N(C)SN(C)C(=O)ON=C(C)SC`, the logP was 2.2. For `CSC(C)=NOC(=O)N(C)SN(C)C(=O)c1c(Cl)cccc1Cl` the value was 2.6; for `CSC(C)=NOC(=O)N(C)SN(C(=O)c1ccc(C)cc1)C(C)C`, 3.4; for `CCOC(=O)N(C)SN(C)C(=O)Oc1cccc2c1OC(C)(C)C2`, 3.5. The figure for `CC(=O)N(C)SN(C)C(=O)Oc1cccc2c1OC(C)(C)C2` is 2.7. For `CCC(=O)N(C)SN(C)C(=O)ON=C(C)SC` the value was 1.6. As to `CN(SN(C)C(=O)c1ccccc1)C(=O)Oc1cccc2c1OC(C)(C)C2`, the logP worked out at 3.5. The figure for `COC(=O)N(C)SN(C)C(=O)O/N=C(\C)SC` is 1.4. The figure for `CCCC(=O)N(C)SN(C)C(=O)Oc1cccc2c1OC(C)(C)C2` is 3.8; for `CN(SN(C)C(=O)OC(C)(C)C)C(=O)Oc1cccc2c1OC(C)(C)C2` it is 4.3; for `CSC(C)=NOC(=O)N(C)SN(C)C(=O)C1CC1` it is 1.7. For `CS/C(C)=N\OC(=O)N(C)SN(C)C(=O)c1ccc(C)cc1` the value was 2.5; for `CCC(=O)N(C)SN(C)C(=O)Oc1cccc2c1OC(C)(C)C2`, 3.2. Take `COC(=O)N(C)SN(C)C(=O)Oc1cccc2c1OC(C)(C)C2`: the logP was 3. `CCCCCCC(=O)N(SN(C)C(=O)ON=C(C)SC)c1ccccc1` came in with a lipophilicity (logP) of 4.2. The figure for `CCCCN(SN(C)C(=O)O/N=C(\C)SC)C(=O)OC` is 2.5; for `CCCCOC(=O)N(CCCC)SN(C)C(=O)ON=C(C)SC` it is 4.2; for `CC(C)C(=O)N(C)SN(C)C(=O)Oc1cccc2c1OC(C)(C)C2` it is 3.6. For `CSC(C)=NOC(=O)N(C)SN(C)C(=O)N(C(C)C)C(C)C` the value was 2.6; for `CCCCCCCCCCOC(=O)N(C)SN(C)C(=O)ON=C(C)SC`, 6.2. The compound `CSC(C)=NOC(=O)N(C)SN(C)C(=O)c1ccccc1Cl` came in with a logP of 2.5. For `CN(SN(C)C(=O)c1ccc(Cl)cc1Cl)C(=O)Oc1cccc2c1OC(C)(C)C2` the value was 4.9. As for `CSC(C)=NOC(=O)N(C)SN(C)C(=O)OC1CCCCC1`, the lipophilicity (logP) was found to be 3.6. The compound `CN(SN(C)C(=O)c1ccc(Cl)cc1)C(=O)Oc1cccc2c1OC(C)(C)C2` showed a logP of 4. On to `CCCCCCN(SN(C)C(=O)ON=C(C)SC)C(=O)N(C)C`, for which the logP is 3.3.

`CNC(=O)ON=C(C)SC` had a logP of 0.6.

The compound `CCCCN(SN(C)C(=O)Oc1cccc2c1OC(C)(C)C2)C(=O)OC` yielded a logP of 4.6. For `CCN(CC)C(=O)N(C)SN(C)C(=O)ON=C(C)SC` the value was 3.2. For `CSC(C)=NOC(=O)N(C)SN(C)C(=O)c1cccc(C(F)(F)F)c1` the value was 2.5; for `CSC(C)=NOC(=O)N(C)SN(C)C(=O)C(C)C`, 2.2; for `CSC(C)=NOC(=O)N(C)SN(C)C(=O)c1ccc(Cl)cc1`, 2.6. The figure for `CCCCN(SN(C)C(=O)ON=C(C)SC)C(C)=O` is 2.4; for `CSC(C)=NOC(=O)N(C)SN(C)C(=O)c1cccc(Cl)c1` it is 2.7. `CSC(C)=NOC(=O)N(C)SN(C)C(=O)c1ccccc1`: the logP was determined as 2.2. For `CSC(C)=NOC(=O)N(C)SN(C)C(=O)ON=C(C)SC` the value was 1.7.

Values taken from the SangsterLogP compilation.
